Article PMC4685510, “A Cell Biologist’s Field Guide to Aurora Kinase Inhibitors” (Frontiers in Oncology, 2015)

Key:
Experiment in all cases: biochemical
Type in all cases: biochemical
[1] = target: 363 human kinases (including Aurora A/B/C) (Homo sapiens, UniProt P16234); conditions: PDGFRa; for remaining activity at 0.1 µM: 100 nM; for remaining activity at 0.1 µM / remaining activity at 0.5 µM: read-out: % Enzyme Activity (relative to DMSO controls)
Description: (§1) However, the Aurora A/B selectivity ratios derived from our in vitro and in vivo data can be compared to prioritize inhibitors.

[2] = target: 363 human kinases (including Aurora A/B/C) (Homo sapiens, UniProt P51451); conditions: BLK, [ATP] 10 µM; for remaining activity at 0.1 µM: 100 nM; for remaining activity at 0.1 µM / remaining activity at 0.5 µM: read-out: % Enzyme Activity (relative to DMSO controls)
Description: as §1

[3] = target: 363 human kinases (including Aurora A/B/C) (Homo sapiens, UniProt P53671); conditions: LIMK2; for remaining activity at 0.1 µM: 100 nM; for remaining activity at 0.1 µM / remaining activity at 0.5 µM: read-out: % Enzyme Activity (relative to DMSO controls)
Description: as §1

[4] = target: 363 human kinases (including Aurora A/B/C) (Homo sapiens, UniProt Q02750); conditions: MEK1; for remaining activity at 0.1 µM: 100 nM; for remaining activity at 0.1 µM / remaining activity at 0.5 µM: read-out: % Enzyme Activity (relative to DMSO controls)
Description: as §1

[5] = target: 363 human kinases (including Aurora A/B/C) (Homo sapiens, UniProt P27448); conditions: MARK3; for remaining activity at 0.1 µM: 100 nM; for remaining activity at 0.1 µM / remaining activity at 0.5 µM: read-out: % Enzyme Activity (relative to DMSO controls)
Description: as §1

[6] = target: T1, 363 human kinases (including Aurora A/B/C) (Homo sapiens, UniProt Q8NE63); conditions: HIPK4; for remaining activity at 0.1 µM: 100 nM; for remaining activity at 0.1 µM / remaining activity at 0.5 µM: read-out: % Enzyme Activity (relative to DMSO controls)
T1 sequence (Q8NE63 1-616): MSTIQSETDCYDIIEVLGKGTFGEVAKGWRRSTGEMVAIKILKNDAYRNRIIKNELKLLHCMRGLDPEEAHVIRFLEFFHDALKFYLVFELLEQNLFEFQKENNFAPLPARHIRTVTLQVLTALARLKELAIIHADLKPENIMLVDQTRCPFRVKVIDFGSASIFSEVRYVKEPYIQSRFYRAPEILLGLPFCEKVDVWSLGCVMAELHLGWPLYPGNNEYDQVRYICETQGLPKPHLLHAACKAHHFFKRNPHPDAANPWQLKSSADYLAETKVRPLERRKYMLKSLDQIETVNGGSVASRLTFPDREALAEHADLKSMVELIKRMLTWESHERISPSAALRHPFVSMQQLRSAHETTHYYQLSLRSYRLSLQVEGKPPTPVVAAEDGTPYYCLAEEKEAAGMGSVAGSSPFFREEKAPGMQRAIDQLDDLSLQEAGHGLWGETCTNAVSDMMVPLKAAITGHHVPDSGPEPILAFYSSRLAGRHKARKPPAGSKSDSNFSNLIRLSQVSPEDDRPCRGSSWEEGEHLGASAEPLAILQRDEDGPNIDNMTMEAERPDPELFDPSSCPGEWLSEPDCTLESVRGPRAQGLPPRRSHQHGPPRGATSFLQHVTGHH
Description: as §1

[7] = target: T2, 363 human kinases (including Aurora A/B/C) (Homo sapiens, UniProt P36896); conditions: ALK4/ACVR1B, [ATP] 50 µM; for remaining activity at 0.1 µM: 100 nM; for remaining activity at 0.1 µM / remaining activity at 0.5 µM: read-out: % Enzyme Activity (relative to DMSO controls)
T2 sequence (P36896 24-505): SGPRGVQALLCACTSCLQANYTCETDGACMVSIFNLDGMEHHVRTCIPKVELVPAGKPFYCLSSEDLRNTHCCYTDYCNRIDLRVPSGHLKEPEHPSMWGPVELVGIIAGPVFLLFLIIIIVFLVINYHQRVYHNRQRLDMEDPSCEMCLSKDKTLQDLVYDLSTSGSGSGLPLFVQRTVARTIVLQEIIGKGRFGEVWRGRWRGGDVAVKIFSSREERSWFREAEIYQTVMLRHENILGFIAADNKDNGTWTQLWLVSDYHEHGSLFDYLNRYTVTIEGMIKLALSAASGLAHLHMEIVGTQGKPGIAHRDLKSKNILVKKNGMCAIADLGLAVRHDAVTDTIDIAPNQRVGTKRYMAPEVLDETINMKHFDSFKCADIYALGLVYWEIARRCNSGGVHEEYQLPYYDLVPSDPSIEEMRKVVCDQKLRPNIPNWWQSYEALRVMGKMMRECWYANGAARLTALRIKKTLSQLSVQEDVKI
Description: as §1

[8] = target: 363 human kinases (including Aurora A/B/C) (Homo sapiens, UniProt Q9P0L2); conditions: MARK1; for remaining activity at 0.1 µM: 100 nM; for remaining activity at 0.1 µM / remaining activity at 0.5 µM: read-out: % Enzyme Activity (relative to DMSO controls)
Description: as §1

[9] = target: T3, 363 human kinases (including Aurora A/B/C) (Homo sapiens, UniProt Q02156); conditions: PKCepsilon; for remaining activity at 0.1 µM: 100 nM; for remaining activity at 0.1 µM / remaining activity at 0.5 µM: read-out: % Enzyme Activity (relative to DMSO controls)
T3 sequence (Q02156 1-737): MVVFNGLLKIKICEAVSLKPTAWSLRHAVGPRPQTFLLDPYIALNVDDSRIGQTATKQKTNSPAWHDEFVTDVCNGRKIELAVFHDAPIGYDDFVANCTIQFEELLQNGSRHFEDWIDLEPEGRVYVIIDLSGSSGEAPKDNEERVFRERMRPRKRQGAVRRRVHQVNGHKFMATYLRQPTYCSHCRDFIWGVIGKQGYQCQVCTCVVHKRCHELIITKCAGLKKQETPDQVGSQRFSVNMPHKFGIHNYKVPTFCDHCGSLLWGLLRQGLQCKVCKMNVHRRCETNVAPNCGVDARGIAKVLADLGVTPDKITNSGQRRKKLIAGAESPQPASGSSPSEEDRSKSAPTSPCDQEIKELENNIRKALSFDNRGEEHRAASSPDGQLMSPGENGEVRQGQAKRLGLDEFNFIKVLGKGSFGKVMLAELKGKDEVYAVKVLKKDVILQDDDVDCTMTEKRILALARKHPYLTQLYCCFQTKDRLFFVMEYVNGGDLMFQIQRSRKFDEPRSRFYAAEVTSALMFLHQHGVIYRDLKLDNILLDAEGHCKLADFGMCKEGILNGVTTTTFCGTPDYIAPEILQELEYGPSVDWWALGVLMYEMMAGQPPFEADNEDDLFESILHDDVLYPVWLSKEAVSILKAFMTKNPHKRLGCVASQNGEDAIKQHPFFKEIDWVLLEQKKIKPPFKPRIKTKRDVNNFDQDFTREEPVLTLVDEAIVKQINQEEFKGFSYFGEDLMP
Description: as §1

[10] = target: 363 human kinases (including Aurora A/B/C) (Homo sapiens, UniProt P51957); conditions: NEK4; for remaining activity at 0.1 µM: 100 nM; for remaining activity at 0.1 µM / remaining activity at 0.5 µM: read-out: % Enzyme Activity (relative to DMSO controls)
Description: as §1

[11] = target: 363 human kinases (including Aurora A/B/C) (Homo sapiens, UniProt Q76MJ5); conditions: ERN2/IRE2, [ATP] 100 µM; for remaining activity at 0.1 µM: 100 nM; for remaining activity at 0.1 µM / remaining activity at 0.5 µM: read-out: % Enzyme Activity (relative to DMSO controls)
Sequence of 363 human kinases (including Aurora A/B/C) (Homo sapiens, UniProt Q76MJ5) (Q76MJ5 35-926): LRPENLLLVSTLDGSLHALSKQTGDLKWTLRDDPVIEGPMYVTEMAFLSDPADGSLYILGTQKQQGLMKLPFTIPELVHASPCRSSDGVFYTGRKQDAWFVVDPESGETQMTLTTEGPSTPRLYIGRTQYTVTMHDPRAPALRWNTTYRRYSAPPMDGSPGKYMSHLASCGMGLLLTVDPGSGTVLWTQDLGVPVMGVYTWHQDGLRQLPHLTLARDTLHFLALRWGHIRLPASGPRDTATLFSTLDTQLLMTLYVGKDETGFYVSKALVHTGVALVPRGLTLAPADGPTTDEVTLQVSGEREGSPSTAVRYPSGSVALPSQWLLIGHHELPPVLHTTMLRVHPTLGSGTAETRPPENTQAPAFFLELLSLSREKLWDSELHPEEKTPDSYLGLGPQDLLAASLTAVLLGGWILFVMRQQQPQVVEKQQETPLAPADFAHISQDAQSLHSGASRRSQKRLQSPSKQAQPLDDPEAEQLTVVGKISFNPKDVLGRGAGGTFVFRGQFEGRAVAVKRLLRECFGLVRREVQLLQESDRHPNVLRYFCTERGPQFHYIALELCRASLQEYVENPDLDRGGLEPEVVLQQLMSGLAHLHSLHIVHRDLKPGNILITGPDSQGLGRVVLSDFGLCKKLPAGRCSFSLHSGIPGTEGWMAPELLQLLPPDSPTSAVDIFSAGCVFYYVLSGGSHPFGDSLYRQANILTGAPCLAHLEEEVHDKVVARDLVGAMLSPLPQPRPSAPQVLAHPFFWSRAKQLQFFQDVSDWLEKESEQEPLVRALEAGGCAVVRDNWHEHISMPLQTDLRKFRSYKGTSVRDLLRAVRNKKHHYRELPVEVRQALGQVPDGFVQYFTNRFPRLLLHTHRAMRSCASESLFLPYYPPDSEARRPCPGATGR
Description: as §1

Sequence of 363 human kinases (including Aurora A/B/C) (Homo sapiens, UniProt Q9P0L2) (Q9P0L2 whole entry): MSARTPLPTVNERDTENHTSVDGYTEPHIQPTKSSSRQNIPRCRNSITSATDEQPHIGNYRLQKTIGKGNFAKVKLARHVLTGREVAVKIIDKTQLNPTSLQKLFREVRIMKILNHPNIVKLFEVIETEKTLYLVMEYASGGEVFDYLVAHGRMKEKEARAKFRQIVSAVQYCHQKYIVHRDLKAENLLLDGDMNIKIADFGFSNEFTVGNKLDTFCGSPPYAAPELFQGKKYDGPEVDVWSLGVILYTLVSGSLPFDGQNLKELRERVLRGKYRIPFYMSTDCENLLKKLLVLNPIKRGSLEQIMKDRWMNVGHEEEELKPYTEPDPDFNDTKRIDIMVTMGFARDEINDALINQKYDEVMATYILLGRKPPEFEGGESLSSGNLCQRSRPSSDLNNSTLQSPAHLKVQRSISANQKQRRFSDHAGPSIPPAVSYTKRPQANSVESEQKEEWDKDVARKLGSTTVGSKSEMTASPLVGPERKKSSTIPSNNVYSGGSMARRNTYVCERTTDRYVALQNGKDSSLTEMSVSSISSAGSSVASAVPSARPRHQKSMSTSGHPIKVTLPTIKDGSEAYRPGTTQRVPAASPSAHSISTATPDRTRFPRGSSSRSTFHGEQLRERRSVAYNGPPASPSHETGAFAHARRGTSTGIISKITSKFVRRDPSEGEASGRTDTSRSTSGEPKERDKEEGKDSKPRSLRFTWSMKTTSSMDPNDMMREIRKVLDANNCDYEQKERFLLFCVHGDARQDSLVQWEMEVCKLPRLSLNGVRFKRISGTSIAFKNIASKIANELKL
Sequence of 363 human kinases (including Aurora A/B/C) (Homo sapiens, UniProt P51957) (P51957 whole entry): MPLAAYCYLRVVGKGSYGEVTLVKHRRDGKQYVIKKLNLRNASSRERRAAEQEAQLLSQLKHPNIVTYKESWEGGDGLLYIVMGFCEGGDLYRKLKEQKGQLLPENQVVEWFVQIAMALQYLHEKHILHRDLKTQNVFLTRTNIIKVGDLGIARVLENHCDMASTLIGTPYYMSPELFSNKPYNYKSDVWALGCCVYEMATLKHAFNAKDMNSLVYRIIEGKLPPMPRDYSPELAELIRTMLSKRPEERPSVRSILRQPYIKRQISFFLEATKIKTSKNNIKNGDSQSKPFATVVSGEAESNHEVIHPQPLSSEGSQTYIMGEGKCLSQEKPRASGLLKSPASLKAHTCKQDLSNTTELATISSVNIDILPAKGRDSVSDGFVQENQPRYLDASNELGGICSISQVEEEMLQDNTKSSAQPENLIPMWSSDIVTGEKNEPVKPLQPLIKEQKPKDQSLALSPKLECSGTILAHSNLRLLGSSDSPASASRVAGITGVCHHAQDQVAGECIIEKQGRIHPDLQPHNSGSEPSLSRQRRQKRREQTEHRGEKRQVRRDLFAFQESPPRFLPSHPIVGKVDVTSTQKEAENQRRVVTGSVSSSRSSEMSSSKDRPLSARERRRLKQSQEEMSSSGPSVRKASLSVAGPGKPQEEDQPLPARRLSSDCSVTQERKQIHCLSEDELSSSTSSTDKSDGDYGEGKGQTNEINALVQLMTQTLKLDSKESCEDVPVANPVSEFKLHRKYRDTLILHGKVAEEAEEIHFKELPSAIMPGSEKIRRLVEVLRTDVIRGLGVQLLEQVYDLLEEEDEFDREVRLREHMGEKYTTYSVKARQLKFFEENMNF
Sequence of 363 human kinases (including Aurora A/B/C) (Homo sapiens, UniProt P53671) (P53671 whole entry): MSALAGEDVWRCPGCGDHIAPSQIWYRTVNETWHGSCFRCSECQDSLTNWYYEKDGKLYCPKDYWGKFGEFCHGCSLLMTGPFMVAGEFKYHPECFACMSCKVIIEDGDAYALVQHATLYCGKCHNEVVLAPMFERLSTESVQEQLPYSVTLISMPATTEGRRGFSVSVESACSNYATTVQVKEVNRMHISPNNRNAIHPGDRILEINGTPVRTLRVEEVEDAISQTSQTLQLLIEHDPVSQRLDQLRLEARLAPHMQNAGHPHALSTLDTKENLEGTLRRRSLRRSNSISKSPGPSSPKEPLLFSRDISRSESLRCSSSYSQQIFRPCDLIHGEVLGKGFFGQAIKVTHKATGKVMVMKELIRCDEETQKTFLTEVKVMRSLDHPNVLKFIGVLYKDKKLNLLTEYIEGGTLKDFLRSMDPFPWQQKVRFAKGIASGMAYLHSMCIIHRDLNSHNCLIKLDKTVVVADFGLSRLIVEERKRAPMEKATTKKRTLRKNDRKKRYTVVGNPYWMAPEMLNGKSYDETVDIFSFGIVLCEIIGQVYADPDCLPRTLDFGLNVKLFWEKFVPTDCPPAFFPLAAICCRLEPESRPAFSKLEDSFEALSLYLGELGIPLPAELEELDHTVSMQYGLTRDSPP
Sequence of 363 human kinases (including Aurora A/B/C) (Homo sapiens, UniProt P51451) (P51451 whole entry): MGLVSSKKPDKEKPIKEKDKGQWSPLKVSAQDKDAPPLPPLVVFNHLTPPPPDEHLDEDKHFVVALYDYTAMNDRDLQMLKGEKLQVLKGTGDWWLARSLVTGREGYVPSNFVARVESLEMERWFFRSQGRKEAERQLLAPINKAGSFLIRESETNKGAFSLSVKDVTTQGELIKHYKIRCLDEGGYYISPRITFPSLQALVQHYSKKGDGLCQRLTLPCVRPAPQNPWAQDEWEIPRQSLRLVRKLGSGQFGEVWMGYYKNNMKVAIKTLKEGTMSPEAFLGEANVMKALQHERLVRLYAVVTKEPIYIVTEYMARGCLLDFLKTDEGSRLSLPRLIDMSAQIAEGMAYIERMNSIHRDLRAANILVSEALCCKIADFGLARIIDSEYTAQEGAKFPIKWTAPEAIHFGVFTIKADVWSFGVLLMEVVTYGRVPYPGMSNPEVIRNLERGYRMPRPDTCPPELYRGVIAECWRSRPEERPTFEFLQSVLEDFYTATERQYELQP
Sequence of 363 human kinases (including Aurora A/B/C) (Homo sapiens, UniProt Q02750) (Q02750 whole entry): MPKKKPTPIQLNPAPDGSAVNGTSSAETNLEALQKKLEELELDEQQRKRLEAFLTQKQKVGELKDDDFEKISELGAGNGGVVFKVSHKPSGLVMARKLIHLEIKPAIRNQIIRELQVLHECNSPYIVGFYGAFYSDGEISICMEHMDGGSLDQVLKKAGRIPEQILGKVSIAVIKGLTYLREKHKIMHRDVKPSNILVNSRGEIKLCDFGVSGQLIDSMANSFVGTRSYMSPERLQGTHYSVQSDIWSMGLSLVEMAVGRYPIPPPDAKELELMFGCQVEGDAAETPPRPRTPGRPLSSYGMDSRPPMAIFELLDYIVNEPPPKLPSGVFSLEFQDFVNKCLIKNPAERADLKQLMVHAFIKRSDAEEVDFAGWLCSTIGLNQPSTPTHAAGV
Sequence of 363 human kinases (including Aurora A/B/C) (Homo sapiens, UniProt P27448) (P27448 whole entry): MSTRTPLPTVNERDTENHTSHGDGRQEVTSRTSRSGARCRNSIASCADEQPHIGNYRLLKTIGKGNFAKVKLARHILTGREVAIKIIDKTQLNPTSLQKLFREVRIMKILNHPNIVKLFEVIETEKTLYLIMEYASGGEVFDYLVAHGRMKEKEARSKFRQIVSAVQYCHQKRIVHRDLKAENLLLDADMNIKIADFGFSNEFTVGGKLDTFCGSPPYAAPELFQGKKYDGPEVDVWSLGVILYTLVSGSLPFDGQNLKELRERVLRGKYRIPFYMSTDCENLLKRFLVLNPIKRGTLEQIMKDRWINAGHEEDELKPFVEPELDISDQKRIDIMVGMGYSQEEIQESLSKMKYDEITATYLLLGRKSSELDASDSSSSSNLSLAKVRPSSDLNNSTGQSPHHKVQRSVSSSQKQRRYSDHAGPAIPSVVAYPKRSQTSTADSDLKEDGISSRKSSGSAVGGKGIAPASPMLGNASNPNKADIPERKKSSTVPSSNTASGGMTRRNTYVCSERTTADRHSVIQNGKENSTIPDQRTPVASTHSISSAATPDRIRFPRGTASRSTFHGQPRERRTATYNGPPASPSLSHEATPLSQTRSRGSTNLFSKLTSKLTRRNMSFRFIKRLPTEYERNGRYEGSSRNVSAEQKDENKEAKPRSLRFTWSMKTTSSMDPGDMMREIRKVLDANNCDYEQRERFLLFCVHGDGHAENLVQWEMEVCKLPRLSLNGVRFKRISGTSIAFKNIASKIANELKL

SMILES | remaining activity at 0.1 µM [1] [%] | remaining activity at 0.1 µM [2] [%] | remaining activity at 0.1 µM [3] [%] | remaining activity at 0.1 µM [4] [%] | remaining activity at 0.1 µM [5] [%] | remaining activity at 0.1 µM [6] [%] | remaining activity at 0.1 µM [7] [%] | remaining activity at 0.1 µM [8] [%] | remaining activity at 0.1 µM [9] [%] | remaining activity at 0.1 µM [10] [%] | remaining activity at 0.1 µM [11] [%] | remaining activity at 0.5 µM ([1]; 500 nM) [%] | remaining activity at 0.5 µM ([2]; 500 nM) [%] | remaining activity at 0.5 µM ([3]; 500 nM) [%] | remaining activity at 0.5 µM ([4]; 500 nM) [%] | remaining activity at 0.5 µM ([5]; 500 nM) [%] | remaining activity at 0.5 µM ([6]; 500 nM) [%] | remaining activity at 0.5 µM ([7]; 500 nM) [%] | remaining activity at 0.5 µM ([8]; 500 nM) [%] | remaining activity at 0.5 µM ([9]; 500 nM) [%] | also measured
CCn1cc(-c2ccnc3[nH]c(-c4cccc(CN(C)C)c4)cc23)c(-c2ccc(NC(=O)N(C)C)cc2)n1 [GSK1070916] | 94 | 85 | 103 | 102 | 97.2 | 86.9 | 102 | 93 | 102 | 111 | 87.3 | – | – | – | – | – | – | – | – | – | –
O=C(O)[C@]1(Cc2cccc(Nc3nccs3)n2)CC[C@@H](Oc2cccc(Cl)c2F)CC1 [MK-5108] | 97.1 | 54.8 | 92.8 | 93.4 | 98.4 | 24.4 | 106 | 117 | 111 | 96.7 | 97 | 92.6 | 17.1 | 76.2 | 96.2 | 107 | 5.4 | 92.9 | 98.6 | 101 | remaining activity at 0.5 µM ([10]; 500 nM): 113%; remaining activity at 0.5 µM ([11]; 500 nM): 87.6%
O=C(c1cccc(Cl)c1F)N1CCN(Cc2cccc(Nc3nccs3)n2)CC1 [MK-8745] | – | – | – | – | – | – | – | – | – | – | – | 99.8 | 72.7 | 98.4 | 97 | 111 | 78.7 | 137 | 96.5 | 120 | % Enzyme Activity (relative to DMSO controls) ([1]; 500 nM): 99.66%; % Enzyme Activity (relative to DMSO controls) ([2]; 500 nM): 72.45%; % Enzyme Activity (relative to DMSO controls) ([3]; 500 nM): 97.95%; % Enzyme Activity (relative to DMSO controls) ([4]; 500 nM): 96.32%; % Enzyme Activity (relative to DMSO controls) ([5]; 500 nM): 110.19%; % Enzyme Activity (relative to DMSO controls) ([6]; 500 nM): 76.34%; % Enzyme Activity (relative to DMSO controls) ([7]; 500 nM): 133.43%; % Enzyme Activity (relative to DMSO controls) ([8]; 500 nM): 96.30%; % Enzyme Activity (relative to DMSO controls) ([9]; 500 nM): 120.37%; % Enzyme Activity (relative to DMSO controls) ([10]; 500 nM): 103.20%; remaining activity at 0.5 µM ([10]; 500 nM): 107%; % Enzyme Activity (relative to DMSO controls) ([11]; 500 nM): 93.54%; remaining activity at 0.5 µM ([11]; 500 nM): 94.5%
